Measurements taken from patent US12415819B2, “Cu- and Ni-catalyzed decarboxylative borylation reactions” (The Scripps Research Institute, priority 2017, dated 2025).
≈ marks a conversion by molar mass, not a printed value.

How the values were obtained:
Experiment in all cases: Antibiotic susceptibility, broth microdilution
Assay type in all cases: cell-based
[1] = system: Enterococcus faecium (Van A, ATCC BAA-2317); conditions: growth observed at 20 h; unit assumed
Experimental: (§1) Antibiotic susceptibilities were determined using the Clinical and Laboratory Standards Institute broth microdilution method (63). Briefly, antibiotics were prepared as 2-fold dilutions in 96-well plates containing cation-adjusted Mueller-Hinton broth (S. aureus strains) or brain-heart infusion broth (Enterococcus strains). Stock solutions of antibiotics were made in dimethyl sulfoxide (DMSO). […]

[2] = system: Enterococcus faecalis (Van B, ATCC 51299); conditions: growth observed at 20 h, unit assumed
Experimental: as §1

[3] = system: Enterococcus faecalis (VanA, BM4166); conditions: growth observed at 20 h, unit assumed
Experimental: as §1

[4] = system: Staphylococcus aureus (ATCC 25923); conditions: growth observed at 20 h; unit assumed
Experimental: as §1

[5] = system: Staphylococcus aureus (methicillin resistant, ATCC 43300); conditions: MRSA; growth observed at 20 h; unit assumed
Experimental: as §1

| Compound | MIC [1] [µg/mL] | MIC [2] [µg/mL] | MIC [3] [µg/mL] | MIC [4] [µg/mL] | MIC [5] [µg/mL] |
| --- | --- | --- | --- | --- | --- |
| CN[C@@H](CC(C)C)C(=O)N[C@H]1C(=O)N[C@@H](CC(N)=O)C(=O)N[C@H]2CN[C@H]3C(=O)N[C@H](C(=O)N[C@@H](C(=O)O)c4cc(OC)cc(OC)c4-c4cc3ccc4OC)[C@H](O)c3ccc(c(Cl)c3)Oc3cc2cc(c3OC)Oc2ccc(cc2Cl)[C@H]1O (atropisomer, axis not shown) [Compound 43] | > 64 | 8 (≈ 6.74 µM) | > 64 | 2 (≈ 1.69 µM) | 2 (≈ 1.69 µM) |
| CN[C@H](CC(C)C)C(=O)N[C@H]1C(=O)N[C@@H](CC(N)=O)C(=O)N[C@H]2C(=O)N[C@H]3C(=O)N[C@H](C(=O)N[C@H](C(=O)O)c4cc(O)cc(O)c4-c4cc3ccc4O)[C@H](O)c3ccc(c(Cl)c3)Oc3cc2cc(c3O)Oc2ccc(cc2Cl)[C@H]1O [vancomycin aglycon] | > 64 | 32 (≈ 28 µM) | > 64 | 1 (≈ 0.874 µM) | 1 (≈ 0.874 µM) |
| CN[C@H](CC(C)C)C(=O)N[C@H]1C(=O)N[C@@H](CC(N)=O)C(=O)N[C@H]2C(=O)N[C@H]3C(=O)N[C@H](C(=O)N[C@H](C(=O)O)c4cc(O)cc(O)c4-c4cc3ccc4O)[C@H](O)c3ccc(c(Cl)c3)Oc3cc2cc(c3O[C@@H]2O[C@H](CO)[C@@H](O)[C@H](O)[C@H]2O[C@H]2C[C@](C)(N)[C@H](O)[C@H](C)O2)Oc2ccc(cc2Cl)[C@H]1O [vancomycin] | > 64 | 16 (≈ 11 µM) | > 64 | 0.5 (≈ 0.345 µM) | 0.5 (≈ 0.345 µM) |
